From US20040087561A1, “Treatment of sexual dysfunction” (priority 2000, published 2004)

System: ovariectomised female Sprague Dawley rats
Assay: Female rat sexual proceptivity (time investigating male vs female stimulus)
Type: in vivo
Protocol: Ovariectomised adult female Sprague Dawley rats (180-200 g, from Charles River) were housed in groups of 6 in a reversed lighting system of 12 h light:dark (lights off 7.00-19.00 h). Two weeks after ovariectomy they were used for sexual activity tests. The experiments started at least 5 h into the dark period.
Tests were carried out in a circular arena of 90 cm diameter, surrounded by a 30 cm high wall. Two small cages with wire-mesh front (15×15 cm) are fixed into the wall such that the front of the cage is <> with the wall and the 2 cages are opposite each other. They contained two stimuli animals: an intact sexually experienced male and a receptive female (ovariectomised, primed with 5 μg oestradiol benzoate dissolved in corn oil and injected subcutaneously 48 hours before the test and with 0.5 mg of progesterone four hours before the test). Sexually naive test and control animals were used. Forty eight hours before the tests, both the test and control animals were primed with 5 μg oestradiol benzoate. For animals used as positive controls, progesterone (0.5 mg/0.1 ml) was dissolved in corn oil and administered subcutaneously (s.c.), 4 h before the test. Test and control animals were introduced one at a time for 10 minute periods into the arena. During the 10 min test, the time that the test or positive control animal spent investigating each stimulus animal was noted. The arena was thoroughly cleaned between animals. The position of the male/female stimuli boxes was randomised between animals, in order to avoid place preference. The difference in the percentage of time spent investigating the male minus the female stimuli was calculated, out of the total time spent investigating stimuli animals.
Compound (1) was dissolved in 100% β-cyclodextrin and then diluted with saline to a final solution of 50% 2-hydroxypropyl-β-cyclodextrin. It was administered intraperitoneally (i.p.) at doses of 3 and 10 mg/kg, in a dosing volume of 1 ml/kg, 1 h before tests. Progesterone (0.5 mg/0.1 ml) was dissolved in corn oil and administered subcutaneously (s.c.), 4 h before test, as a positive control.
Ovariectomised adult female Sprague Dawley rats (180-200 g) were housed in groups of 5 in a reversed lighting system of 12 h light:dark (lights off 5.00-17.00 h). They were used for the experiments at least two weeks after ovariectomy. Forty eight hours before tests, the animals were primed with oestradiol benzoate (5 μg/0.1 ml in corn oil, s.c.). On day 1, progesterone (0.5 mg/0.1 ml, in corn oil, s.c.) was administered to one of the groups 4 h before tests, as a positive control. Compound (1) (15 mg/kg, i.p.) was administered in 50% 2-hydroxypropyl-β-cyclodextrin, 1 h before tests. The test lasted 10 minutes and was carried out as described before. The difference in the percentage of time spent investigating the male minus the female stimuli was calculated, out of the total time spent investigating stimuli animals. Animals were submitted to a test on day 1 and on day 15. From day 2 to 14 the Compound (1) group received a daily injection of the compound (15 mg/kg, i.p.), while both the vehicle and the progesterone groups received an injection of vehicle. On day 15 the test took place again, as described for day 1.
Ovariectomised female rats (Sprague Dawley, obtained from Charles River, UK) were stereotaxically implanted (coordinates 0.89 mm behind Bregma, 1.3 mm lateral and 2.5 mm vertical) with stainless steel cannulae (6 mm long, O.D. 0.75 mm), held in place with dental cement. Animals were housed in groups of three and returned to a reversed lighting system of 12 h light:dark (lights off 5.00-17.00 h). Correct placement of the cannulae was assessed post-mortem. Rats were used for tests two weeks after ovariectomy (one week after cannulation). The experiments started at least 5 h into the dark period. […]

COc1ccc(C2(CNC(=O)[C@](C)(Cc3c[nH]c4ccccc34)NC(=O)Nc3ccc([N+](=O)[O-])cc3)CCCCC2)nc1 [Compound (1), (S) 3-(1H-Indol-3-yl)-N-[1-(5-methoxy-pyridin-2-yl)-cyclohexyl-methyl]-2-methyl-2-[3-(4-nitro-phenyl)-ureido]-propionamide]
effect on proceptivity, day 1 (day 1, Compound (1) 15 mg/kg i.p. 1 h before, progesterone 0.5 mg/0.1 ml s.c. 4 h before, vs vehicle, P<0.01): stimulatory effect on proceptivity
MED, percentage of time spent investigating the male stimulus (proceptivity) (i.c.v., 3-30 μg/rat, 10 min before test): 10 µg
percentage of time spent investigating the male stimulus (proceptivity) (i.c.v., dose-dependently 3-30 μg/rat, 10 min before test): increased the percentage of time spent investigating the male stimulus
MED, percentage of time spent investigating the male stimulus (proceptivity) (i.p., 3 and 10 mg/kg, 1 h before test, 50% 2-hydroxypropyl-β-cyclodextrin): 10 mg/kg
percentage of time spent investigating the male stimulus (proceptivity) (i.p., dose-dependently 3 mg/kg-10 mg/kg, 1 h before test, vs vehicle): increased the percentage of time spent investigating the male stimulus
body weight or general behaviour (repeated administration 15 mg/kg i.p. daily for 15 days): no changes in body weight or general behaviour
